Drawing on patent US12686673B2 (Blueprint Medicines Corporation, priority 2020, dated 2026), this text covers GI50 and IC50 for 16 compounds.

Format in all cases: cell-based
Assay [1] has as its target EGFR(D770_N771insSVD) expressing Ba/F3 stable cell line (Homo sapiens, UniProt P00533, DUP768-770, cells depend on it). Nature of the assay: Cellular proliferation (Alamar Blue) assay, EGFR D770_N771insSVD Ba/F3. Particulars: 72 hr, read-out: D770 IC50. The essentials:
(§1)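 Each stable Ba/F3 line, cultured in RPMI with 10% FBS at 15,000 cells per well, received a threefold compound series (final top 10 μM, bottom 0.0005 μM) for 72 hr at 37 degree Celsius, then Alamar Blue for 3 h.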
On the technique in general: The colour change of resazurin is a common sign of viable cells or microbes.

For assay [2], the target named is EGFR (A767_dupASV) expressing Ba/F3 stable cell line (Homo sapiens, UniProt P00533, DUP767-769, cells depend on it). The assay can be described thus: Cellular proliferation (Alamar Blue) assay, EGFR A767_dupASV Ba/F3. Particulars: 72 hr, read-out: A767 IC50. The essentials: as §1
For another assay, the system named is A431 cells. The assay can be described thus: Cellular proliferation (Alamar Blue) assay, A431.
The target in assay [3] is HER2 (A775_G776insYVMA) expressing Ba/F3 stable cell line (Homo sapiens, UniProt P04626, DUP772-775, cells depend on it). Nature of the assay: Cellular proliferation (Alamar Blue) assay, HER2 A775_G776insYVMA Ba/F3. The conditions noted are these: 72 hr, read-out: YVMA IC50. The essentials:
as §1

[4] abbreviates: Homo sapiens, A-431; A431 cells, Alamar Blue, 72 hr; read-out: A431 IC50.
Setting [5] is: Homo sapiens, A-431; A431 cells, 72 hr, Alamar Blue; read-out: A431 IC50.

Where two headings read alike, the source gives them in different places.

Sequence of EGFR(D770_N771insSVD) expressing Ba/F3 stable cell line (P00533 with tags, fused parts or gaps DUP768-770): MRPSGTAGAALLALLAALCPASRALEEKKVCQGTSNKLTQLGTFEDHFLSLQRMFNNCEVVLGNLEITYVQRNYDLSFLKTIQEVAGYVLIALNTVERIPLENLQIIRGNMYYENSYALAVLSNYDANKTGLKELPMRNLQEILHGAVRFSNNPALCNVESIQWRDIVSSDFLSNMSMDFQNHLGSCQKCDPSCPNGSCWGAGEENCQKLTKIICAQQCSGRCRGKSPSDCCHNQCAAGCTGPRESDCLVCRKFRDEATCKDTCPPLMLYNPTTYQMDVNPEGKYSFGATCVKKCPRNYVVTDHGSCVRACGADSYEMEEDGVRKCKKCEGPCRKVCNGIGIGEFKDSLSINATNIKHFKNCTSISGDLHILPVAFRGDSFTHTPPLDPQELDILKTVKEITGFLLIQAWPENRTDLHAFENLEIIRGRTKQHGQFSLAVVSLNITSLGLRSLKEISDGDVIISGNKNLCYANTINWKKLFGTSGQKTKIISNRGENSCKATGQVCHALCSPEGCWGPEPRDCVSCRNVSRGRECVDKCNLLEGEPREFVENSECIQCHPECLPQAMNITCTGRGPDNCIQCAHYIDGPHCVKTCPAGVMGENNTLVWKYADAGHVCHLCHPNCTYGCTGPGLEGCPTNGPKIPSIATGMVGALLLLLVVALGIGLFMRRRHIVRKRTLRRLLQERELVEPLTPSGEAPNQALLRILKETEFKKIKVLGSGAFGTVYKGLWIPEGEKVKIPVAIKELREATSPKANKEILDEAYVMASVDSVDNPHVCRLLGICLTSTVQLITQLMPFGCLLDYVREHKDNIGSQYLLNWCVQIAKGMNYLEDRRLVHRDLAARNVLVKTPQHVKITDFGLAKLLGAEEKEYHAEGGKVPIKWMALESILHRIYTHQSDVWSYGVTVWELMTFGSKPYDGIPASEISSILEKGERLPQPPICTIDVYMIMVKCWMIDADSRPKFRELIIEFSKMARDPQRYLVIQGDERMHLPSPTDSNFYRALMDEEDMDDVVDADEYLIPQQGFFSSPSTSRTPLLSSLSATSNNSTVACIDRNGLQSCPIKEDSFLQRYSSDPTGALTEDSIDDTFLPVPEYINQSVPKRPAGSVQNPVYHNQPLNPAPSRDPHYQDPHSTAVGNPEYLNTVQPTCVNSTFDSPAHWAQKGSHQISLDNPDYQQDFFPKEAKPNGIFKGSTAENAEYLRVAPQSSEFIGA
Sequence of EGFR (A767_dupASV) expressing Ba/F3 stable cell line (P00533 with tags, fused parts or gaps DUP767-769): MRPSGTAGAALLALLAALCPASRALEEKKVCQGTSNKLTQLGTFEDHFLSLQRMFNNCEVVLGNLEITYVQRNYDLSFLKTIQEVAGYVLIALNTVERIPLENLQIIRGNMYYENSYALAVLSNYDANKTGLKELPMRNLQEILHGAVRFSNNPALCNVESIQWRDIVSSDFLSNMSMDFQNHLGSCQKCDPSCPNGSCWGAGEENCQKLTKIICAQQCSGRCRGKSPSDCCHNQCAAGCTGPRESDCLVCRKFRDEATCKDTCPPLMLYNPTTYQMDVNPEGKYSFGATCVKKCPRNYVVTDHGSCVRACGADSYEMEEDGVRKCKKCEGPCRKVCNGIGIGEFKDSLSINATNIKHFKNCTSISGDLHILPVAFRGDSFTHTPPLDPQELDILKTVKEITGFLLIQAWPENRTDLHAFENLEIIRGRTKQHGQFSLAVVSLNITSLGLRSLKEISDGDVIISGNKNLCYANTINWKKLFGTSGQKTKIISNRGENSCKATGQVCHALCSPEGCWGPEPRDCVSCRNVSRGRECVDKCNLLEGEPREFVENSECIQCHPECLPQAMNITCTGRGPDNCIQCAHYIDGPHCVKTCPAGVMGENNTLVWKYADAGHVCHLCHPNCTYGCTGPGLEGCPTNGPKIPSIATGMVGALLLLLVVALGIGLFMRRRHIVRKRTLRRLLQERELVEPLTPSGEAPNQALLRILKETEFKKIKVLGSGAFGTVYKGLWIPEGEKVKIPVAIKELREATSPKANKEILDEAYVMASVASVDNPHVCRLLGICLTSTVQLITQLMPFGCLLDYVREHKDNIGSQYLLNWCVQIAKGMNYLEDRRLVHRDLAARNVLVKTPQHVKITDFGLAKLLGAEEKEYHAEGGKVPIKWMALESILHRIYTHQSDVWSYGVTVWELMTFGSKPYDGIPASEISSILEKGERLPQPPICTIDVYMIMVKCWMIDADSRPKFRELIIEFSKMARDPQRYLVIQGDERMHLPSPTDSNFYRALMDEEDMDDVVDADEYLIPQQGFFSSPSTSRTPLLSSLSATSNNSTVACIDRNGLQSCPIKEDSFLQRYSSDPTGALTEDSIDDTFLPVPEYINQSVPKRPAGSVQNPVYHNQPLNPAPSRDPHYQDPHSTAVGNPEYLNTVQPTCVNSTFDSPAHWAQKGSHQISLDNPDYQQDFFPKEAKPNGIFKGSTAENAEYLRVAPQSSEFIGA
Sequence of HER2 (A775_G776insYVMA) expressing Ba/F3 stable cell line (P04626 with tags, fused parts or gaps DUP772-775): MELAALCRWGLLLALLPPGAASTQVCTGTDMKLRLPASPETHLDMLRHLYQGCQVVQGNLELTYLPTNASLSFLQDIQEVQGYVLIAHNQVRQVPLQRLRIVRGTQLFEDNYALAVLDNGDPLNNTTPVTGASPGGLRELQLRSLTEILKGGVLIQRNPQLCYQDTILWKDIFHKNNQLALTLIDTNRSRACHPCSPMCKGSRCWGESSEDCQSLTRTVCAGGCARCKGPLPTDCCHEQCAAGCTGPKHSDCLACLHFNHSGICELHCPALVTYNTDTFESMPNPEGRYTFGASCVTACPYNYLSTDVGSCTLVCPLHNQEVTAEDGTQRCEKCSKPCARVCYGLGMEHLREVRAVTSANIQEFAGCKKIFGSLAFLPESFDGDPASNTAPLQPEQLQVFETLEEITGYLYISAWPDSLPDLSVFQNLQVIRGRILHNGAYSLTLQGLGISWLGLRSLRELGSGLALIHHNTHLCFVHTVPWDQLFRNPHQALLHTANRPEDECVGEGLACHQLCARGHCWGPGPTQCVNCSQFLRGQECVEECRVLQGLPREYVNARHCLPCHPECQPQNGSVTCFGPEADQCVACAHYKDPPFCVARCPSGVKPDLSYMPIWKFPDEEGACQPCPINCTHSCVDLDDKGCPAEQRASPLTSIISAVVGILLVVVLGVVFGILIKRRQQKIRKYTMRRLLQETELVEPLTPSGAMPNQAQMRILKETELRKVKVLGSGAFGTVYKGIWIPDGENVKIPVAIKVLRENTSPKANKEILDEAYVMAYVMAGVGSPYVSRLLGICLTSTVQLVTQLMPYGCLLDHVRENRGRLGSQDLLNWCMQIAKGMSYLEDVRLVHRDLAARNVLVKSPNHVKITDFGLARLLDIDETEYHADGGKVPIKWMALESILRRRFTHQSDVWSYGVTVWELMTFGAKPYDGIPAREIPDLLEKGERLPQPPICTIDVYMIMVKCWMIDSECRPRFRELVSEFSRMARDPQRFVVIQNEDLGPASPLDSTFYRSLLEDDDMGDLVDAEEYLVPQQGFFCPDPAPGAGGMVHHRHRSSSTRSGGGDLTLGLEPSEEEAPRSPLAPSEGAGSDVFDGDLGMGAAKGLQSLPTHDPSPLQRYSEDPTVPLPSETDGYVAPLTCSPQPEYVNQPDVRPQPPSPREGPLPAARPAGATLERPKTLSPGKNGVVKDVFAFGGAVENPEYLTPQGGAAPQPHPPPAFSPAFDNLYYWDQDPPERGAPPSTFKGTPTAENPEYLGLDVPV

By IC50 is commonly meant the midpoint of a concentration-inhibition curve. `CN(C)C/C=C/C(=O)Nc1ccc(F)c(Nc2nc(Nc3cnn(C4CCC(O)CC4)c3)ncc2Cl)c1` (stereo not shown) [Compound 5, (E)-N-(3-((5-chloro-2-((1-(4-hydroxycyclohexyl)-1H-pyrazol-4-yl)amino)pyrimidin-4-yl)amino)-4-fluorophenyl)-4-(dimethylamino)but-2-enamide]: the figures for the GI50 in assay [1], in assay [2] and in assay [3] were 5580 nM, 7380 nM and 4280 nM, respectively. Moreover, the IC50 with A431 cells (setting [4]) was above 10000 nM.
For `C=CC(=O)Nc1ccc(F)c(Nc2nc(Nc3cnn(C)c3)ncc2-c2ccncc2)c1` [Compound 137, N-(4-fluoro-3-((2-((1-methyl-1H-pyrazol-4-yl)amino)-5-(pyridin-4-yl)pyrimidin-4-yl)amino)phenyl)acrylamide] the same measures were 254 nM, 325 nM, 751 nM and above 10000 nM.
In the case of `C=CC(=O)Nc1ccc(F)c(Nc2nc(Nc3cnn(CCO)c3)ncc2-c2ccc(Br)cc2)c1` [Compound 206, N-(3-((5-(4-bromophenyl)-2-((1-(2-hydroxyethyl)-1H-pyrazol-4-yl)amino)pyrimidin-4-yl)amino)-4-fluorophenyl)acrylamide], the GI50 in assay [1] turned out to be 35 nM; in assay [2] it was 44 nM; in assay [3], 120 nM. Moreover, the IC50 in the assay with A431 cells (setting [5]) was determined as 36 nM.
The matching figures for `C=CC(=O)Nc1ccc(F)c(Nc2nc(Nc3cn(CCN(C)C)nc3Cl)ncc2-c2ccc(Br)cc2)c1` [Compound 208, N-(3-((5-(4-bromophenyl)-2-((3-chloro-1-(2-(dimethylamino)ethyl)-1H-pyrazol-4-yl)amino)pyrimidin-4-yl)amino)-4-fluorophenyl)acrylamide]: 76 nM, 121 nM, 402 nM and 46 nM.
Regarding `[2H]C([2H])=CC(=O)Nc1ccc(F)c(Nc2nc(Nc3cnn(C)c3)ncc2-c2ccc(Br)cc2)c1` [Compound 250, N-(3-((5-(4-bromophenyl)-2-((1-methyl-1H-pyrazol-4-yl)amino)pyrimidin-4-yl)amino)-4-fluorophenyl)acrylamide-3,3-d2], the GI50 in assay [1] was 34 nM; in assay [2], 47 nM; in assay [3] it was 204 nM. For the same compound, the IC50 with A431 cells (setting [5]) was 65 nM.
For `[2H]C([2H])=CC(=O)Nc1ccc(F)c(Nc2nc(Nc3cn(C)nc3Cl)ncc2-c2ccc(C(F)(F)F)cc2)c1` [Compound 249, N-(3-((2-((3-chloro-1-methyl-1H-pyrazol-4-yl)amino)-5-(4-(trifluoromethyl)phenyl)pyrimidin-4-yl)amino)-4-fluorophenyl)acrylamide-3,3-d2], the GI50 in assay [1] amounted to 101 nM; in assay [2] it was 261 nM; in assay [3], 1050 nM. Moreover, the IC50 in the assay with A431 cells (setting [5]) amounted to 123 nM.
Regarding `C=CC(=O)Nc1ccc(F)c(Oc2nc(Nc3cnn(C4CCN(C)CC4)c3)ncc2Cl)c1` [Compound 168, N-(3-((5-chloro-2-((1-(1-methylpiperidin-4-yl)-1H-pyrazol-4-yl)amino)pyrimidin-4-yl)oxy)-4-fluorophenyl)acrylamide], the figures for the GI50 in assay [1], in assay [2] and in assay [3] were 929 nM, 904 nM and 2260 nM, respectively. Further, the IC50 in the assay on A431 cells (setting [4]) is above 10000 nM.
The matching figures for `C=CC(=O)Nc1ccc(Cl)c(Nc2ccnc(Nc3cnn(C)c3)n2)c1` [Compound 165, N4-(5-amino-2-chlorophenyl)-N2-(1-methyl-1H-pyrazol-4-yl)pyrimidine-2,4-diamineprop-2-enoyl chloride]: above 10000 nM, above 10000 nM, 9930 nM and above 10000 nM.
The matching figures for `CN(C)C/C=C/C(=O)Nc1ccc(C#Cc2ccccc2)c(Nc2nc(Nc3cnn(C)c3)ncc2Cl)c1` [Compound 179, (E)-N-(3-((5-chloro-2-((1-methyl-1H-pyrazol-4-yl)amino)pyrimidin-4-yl)amino)-4-(phenylethynyl)phenyl)-4-(dimethylamino)but-2-enamide]: above 10000 nM, above 10000 nM, 4030 nM and above 10000 nM.
For `C=CC(=O)Nc1ccc(F)c(Nc2nc(Nc3cnn(C)c3)ncc2C(F)(F)F)c1` [Compound 36, N-(4-fluoro-3-((2-((1-methyl-1H-pyrazol-4-yl)amino)-5-(trifluoromethyl)pyrimidin-4-yl)amino)phenyl)acrylamide] the same measures were 357 nM, 332 nM, 416 nM and 8150 nM.
For `C=CC(=O)Nc1ccc(F)c(Nc2nc(Nc3cnn(C)c3)ncc2-c2ccc3[nH]ccc3c2)c1` [Compound 97, N-(4-fluoro-3-{[5-(1H-indol-5-yl)-2-[(1-methyl-1H-pyrazol-4-yl)amino]pyrimidin-4-yl]amino}phenyl)prop-2-enamide], the GI50 in assay [1] was found to be 546 nM; in assay [2], 862 nM; in assay [3], 403 nM. The IC50 with A431 cells (setting [4]) amounted to 586 nM.
The matching figures for `C=CC(=O)Nc1cccc(F)c1CNc1nc(Nc2cnn(C)c2)ncc1Cl` [Compound 173, N-(2-(((5-chloro-2-((1-methyl-1H-pyrazol-4-yl)amino)pyrimidin-4-yl)amino)methyl)-3-fluorophenyl)acrylamide]: 9780 nM, above 10000 nM, 2000 nM and above 10000 nM.
As to `C=CC(=O)Nc1ccc(F)c(N(C)c2nc(Nc3cnn(C)c3)ncc2-c2ccc(C(F)(F)F)cc2)c1` [Compound 228, N-(4-fluoro-3-(methyl(2-((1-methyl-1H-pyrazol-4-yl)amino)-5-(4-(trifluoromethyl)phenyl)pyrimidin-4-yl)amino)phenyl)acrylamide], the GI50 was 952 nM in assay [1], 891 nM in assay [2] and 1250 nM in assay [3]. Moreover, the IC50 with A431 cells (setting [5]) came to 4120 nM.
Turning to `C=CC(=O)Nc1ccc(F)c(-c2nc(Nc3cnn(C)c3)ncc2Cl)c1` [Compound 159, N-(3-{5-chloro-2-[(1-methyl-1H-pyrazol-4-yl)amino]pyrimidin-4-yl}-4-fluorophenyl)prop-2-enamide], the GI50 was 9550 nM in assay [1], 2780 nM in assay [2] and above 10000 nM in assay [3]. Also, in the assay with A431 cells (setting [4]), the IC50 is above 10000 nM.
Consider `CN(C)C/C=C/C(=O)Nc1ccc(-c2ccccc2)c(Nc2ccnc(Nc3cnn(C)c3)n2)c1` [Compound 176, (E)-4-(dimethylamino)-N-(2-((2-((1-methyl-1H-pyrazol-4-yl)amino)pyrimidin-4-yl)amino)-[1,1′-biphenyl]-4-yl)but-2-enamide], for which the GI50 in assay [1] is above 10000 nM; in assay [2], 8020 nM; in assay [3], above 10000 nM. Besides, the IC50 in the assay with A431 cells (setting [4]) was above 10000 nM.
Consider `C=CC(=O)Nc1ccc(F)c(Nc2nc(Nc3cnn(C)c3)ncc2-c2csc(Cl)c2)c1` [Compound 298, N-(3-((5-(5-chlorothiophen-3-yl)-2-((1-methyl-1H-pyrazol-4-yl)amino)pyrimidin-4-yl)amino)-4-fluorophenyl)acrylamide], for which the GI50 in assay [1] was determined as 99 nM; in assay [2] it was 128 nM; in assay [3] it was 402 nM. The IC50 with A431 cells (setting [5]) was found to be 120 nM.
